The experiment has as its target Trypsin (Homo sapiens, UniProt P07477+P07478+P35030). Kind of experiment: Competitive inhibition of trypsin (unknown origin) using […] as substrate incubated for 20 mins prior to substrate addition by Dixon plot/ Lineweaver-Burk plot analysis. In kind it is protein assay.

Ki data for two compounds are collected here from ChEMBL document CHEMBL2429800, “A new trypsin inhibitory phthalic acid ester from Heliotropium strigosum” (Med Chem Res, 2013).

Consider `CCCCCCCCC(CC)COC(=O)c1ccccc1C(=O)OCC(CC)CCCCCCCC` (configuration not stated), for which the Ki (usually a dissociation constant, usually derived from enzyme kinetics or from competition with a known ligand) worked out at 12.1 µM.

In turn, `O=S(=O)(F)Cc1ccccc1` [PHENYLMETHYLSULFONYLFLUORIDE] showed a Ki of 10.01 µM.
